The NIST ThermoML archive (doi:10.1021/je8007217)

Key:
[1] = 298.15 K, 101 kPa, Liquid; for viscosity: Capillary tube (Ostwald / Ubbelohde) method; for mass density: Pycnometric method
[2] = xn = mol fraction of the nth substance listed; conditions: 298.15 K, 101 kPa, Liquid; for viscosity: Capillary tube (Ostwald / Ubbelohde) method; for mass density: Pycnometric method

C1CCCCC1 [cyclohexane]
[1]
Conditions | mass density [kg/m3] | viscosity [mPa·s]
– | 773.8 | 0.892

C1CCCCC1 [cyclohexane] + CCCOC(C)=O
[2], x1 = 1
Conditions | mass density [kg/m3] | viscosity [mPa·s]
– | 773.8 | 0.892

C1CCCCC1 [cyclohexane] + CCOC(C)=O
[2], x1 = 1
Conditions | mass density [kg/m3] | viscosity [mPa·s]
– | 773.8 | 0.892

C1CCCCC1 [cyclohexane] + COC(C)=O
[2], x1 = 1
Conditions | mass density [kg/m3] | viscosity [mPa·s]
– | 773.8 | 0.892

C1CCCCC1 [cyclohexane] + O=C1CCCCC1
[2], x1 = 1
Conditions | mass density [kg/m3] | viscosity [mPa·s]
– | 773.8 | 0.892

O=C1CCCCC1 [cyclohexanone]
[1]
Conditions | mass density [kg/m3] | viscosity [mPa·s]
– | 941.6 | 2.02

O=C1CCCCC1 [cyclohexanone] + C1CCCCC1
[2]
Conditions | mass density [kg/m3] | viscosity [mPa·s]
x2 = 0 | 941.6 | 2.02
x2 = 0.1147 | 921.8 | 1.813
x2 = 0.2257 | 903 | 1.638
x2 = 0.3332 | 884.8 | 1.475
x2 = 0.4374 | 867.1 | 1.335
x2 = 0.5384 | 849.6 | 1.225
x2 = 0.6363 | 832.5 | 1.126
x2 = 0.7313 | 816 | 1.038
x2 = 0.8235 | 800 | 0.965
x2 = 0.913 | 785.9 | 0.921

O=C1CCCCC1 [cyclohexanone] + CCCOC(C)=O
[2]
Conditions | mass density [kg/m3] | viscosity [mPa·s]
x1 = 0.1036 | 888.2 | 0.609
x1 = 0.2064 | 894.2 | 0.666
x1 = 0.3084 | 900.4 | 0.731
x1 = 0.4096 | 906.5 | 0.821
x1 = 0.5099 | 912.4 | 0.926
x1 = 0.6095 | 918.4 | 1.049
x1 = 0.7083 | 924.3 | 1.199
x1 = 0.8063 | 930.2 | 1.407
x1 = 0.9035 | 936.1 | 1.685
x1 = 1 | 941.6 | 2.02

O=C1CCCCC1 [cyclohexanone] + CCOC(C)=O
[2]
Conditions | mass density [kg/m3] | viscosity [mPa·s]
x1 = 0.0907 | 898.3 | 0.47
x1 = 0.1833 | 902.6 | 0.521
x1 = 0.2778 | 907.3 | 0.585
x1 = 0.3744 | 912.3 | 0.667
x1 = 0.473 | 917.5 | 0.764
x1 = 0.5738 | 922.6 | 0.892
x1 = 0.6769 | 927.6 | 1.058
x1 = 0.7822 | 932.6 | 1.289
x1 = 0.8899 | 937.3 | 1.604
x1 = 1 | 941.6 | 2.02

O=C1CCCCC1 [cyclohexanone] + COC(C)=O
[2]
Conditions | mass density [kg/m3] | viscosity [mPa·s]
x1 = 0.0774 | 927.4 | 0.407
x1 = 0.1587 | 928.5 | 0.445
x1 = 0.2444 | 929.9 | 0.504
x1 = 0.3347 | 931.3 | 0.577
x1 = 0.4301 | 932.9 | 0.666
x1 = 0.531 | 934.6 | 0.779
x1 = 0.6378 | 936.4 | 0.936
x1 = 0.7512 | 938.2 | 1.163
x1 = 0.8717 | 940.2 | 1.488
x1 = 1 | 941.6 | 2.02

CCOC(C)=O [ethyl acetate]
[1]
Conditions | mass density [kg/m3] | viscosity [mPa·s]
– | 894.5 | 0.426

CCOC(C)=O [ethyl acetate] + C1CCCCC1
[2]
Conditions | mass density [kg/m3] | viscosity [mPa·s]
x2 = 0 | 894.5 | 0.426
x2 = 0.1042 | 877 | 0.432
x2 = 0.2074 | 861.2 | 0.436
x2 = 0.3097 | 847 | 0.441
x2 = 0.4111 | 833.9 | 0.462
x2 = 0.5115 | 822.1 | 0.493
x2 = 0.611 | 811.2 | 0.533
x2 = 0.7095 | 801.2 | 0.585
x2 = 0.8072 | 791.8 | 0.653
x2 = 0.904 | 782.7 | 0.749

CCOC(C)=O [ethyl acetate] + O=C1CCCCC1
[2], x2 = 0
Conditions | mass density [kg/m3] | viscosity [mPa·s]
– | 894.5 | 0.426

COC(C)=O [methyl ethanoate]
[1]
Conditions | mass density [kg/m3] | viscosity [mPa·s]
– | 926.8 | 0.38

COC(C)=O [methyl ethanoate] + C1CCCCC1
[2]
Conditions | mass density [kg/m3] | viscosity [mPa·s]
x2 = 0 | 926.8 | 0.38
x2 = 0.0891 | 903.7 | 0.381
x2 = 0.1804 | 883.3 | 0.383
x2 = 0.2739 | 864.7 | 0.388
x2 = 0.3698 | 848.5 | 0.407
x2 = 0.4681 | 833.1 | 0.437
x2 = 0.569 | 819.4 | 0.477
x2 = 0.6725 | 806.4 | 0.535
x2 = 0.7788 | 794.9 | 0.603
x2 = 0.8879 | 784.2 | 0.708

COC(C)=O [methyl ethanoate] + O=C1CCCCC1
[2], x2 = 0
Conditions | mass density [kg/m3] | viscosity [mPa·s]
– | 926.8 | 0.38

CCCOC(C)=O [propyl ethanoate]
[1]
Conditions | mass density [kg/m3] | viscosity [mPa·s]
– | 883 | 0.551

CCCOC(C)=O [propyl ethanoate] + C1CCCCC1
[2]
Conditions | mass density [kg/m3] | viscosity [mPa·s]
x2 = 0 | 883 | 0.551
x2 = 0.1188 | 868.5 | 0.54
x2 = 0.2328 | 854.7 | 0.548
x2 = 0.3421 | 841.8 | 0.554
x2 = 0.4472 | 829.9 | 0.572
x2 = 0.5482 | 819.3 | 0.587
x2 = 0.6454 | 809.3 | 0.625
x2 = 0.739 | 800 | 0.663
x2 = 0.8292 | 791.1 | 0.715
x2 = 0.9161 | 782.3 | 0.786

CCCOC(C)=O [propyl ethanoate] + O=C1CCCCC1
[2], x2 = 0
Conditions | mass density [kg/m3] | viscosity [mPa·s]
– | 883 | 0.551
